For the assay, the target named is T1, human CC-chemokine receptor 4 (CCR4); CHO-CCR4 membranes (Homo sapiens, UniProt P51679).
T1 construct: membranes
T1 sequence (P51679 1-360): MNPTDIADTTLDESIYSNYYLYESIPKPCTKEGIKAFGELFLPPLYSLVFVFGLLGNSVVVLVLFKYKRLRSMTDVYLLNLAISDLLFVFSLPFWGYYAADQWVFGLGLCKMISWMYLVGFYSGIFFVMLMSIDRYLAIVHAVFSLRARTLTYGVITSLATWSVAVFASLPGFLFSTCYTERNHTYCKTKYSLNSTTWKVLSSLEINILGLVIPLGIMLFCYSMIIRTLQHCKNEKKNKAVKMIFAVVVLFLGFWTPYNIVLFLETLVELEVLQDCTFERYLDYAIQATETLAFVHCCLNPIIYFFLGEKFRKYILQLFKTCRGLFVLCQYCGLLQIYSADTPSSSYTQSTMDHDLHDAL
Put plainly: […]CCL17 displacement, scintillation proximity assay, CHO-CCR4 membranes. Type of assay: binding. The conditions noted are these: read-out: [^125I]CCL17 / pKi (converted). On the technique in general: Scintillation proximity formats need no separation of bound from free tracer.
Consider `c1ccc2c(Nc3nc(CN(CC4CCCCC4)CC4CCCCC4)cs3)cccc2c1` [compound 1], for which the Ki is 457 nM. As for `COc1cccc2c1c(NS(=O)(=O)c1ccc(Cl)s1)nn2Cc1cccc(CNC(=O)OC(C)(C)C)c1` [compound 2], the figure is 18.2 nM; as for `COc1cccc2c1c(NS(=O)(=O)c1ccc(Cl)s1)nn2Cc1cccc(CNC(=O)C(C)(C)O)c1` [compound 3], 6.17 nM. On to `O=C([C@H]1CCCCN1)N1CCN(c2nccc(NCc3ccc(Cl)cc3Cl)n2)CC1` [compound 4], for which the Ki was 2.75 nM.

On to `COc1cc2nc(N3CCC(N(C)C(=O)[C@H]4CCCN4)CC3)nc(Nc3ccc(Cl)cc3F)c2cc1OC` [compound 6], for which the Ki was 2 nM. As to `COc1nc(Br)cnc1NS(=O)(=O)c1ccc(Cl)s1` [compound 7], the Ki was 29.5 nM.

These data come from paper PMC4186434, “Antagonism of human CC-chemokine receptor 4 can be achieved through three distinct binding sites on the receptor” (Pharmacology Research & Perspectives, 2013).
